Measured values taken from article PMC8989888, “Development of optimized drug-like small molecule inhibitors of the SARS-CoV-2 3CL protease for treatment of COVID-19” (Nature Communications, 2022).
Like-named read-outs stand apart in the source and are kept apart here.

Molecular target: SARS-CoV-2 3CL protease (Severe acute respiratory syndrome coronavirus 2, UniProt P0DTD1)
Assay type: biochemical
Set-up: Avg: unit not given here
Conditions: for Inhibition at 10 µM: 10 µM compound; for Inhibition at 100 µM: 100 µM compound; for IC50 / LogIC50: Figure S1 and S2
[1] = Conc 10 µM, average response of dose-response curve
[2] = Conc 15 µM, average response of dose-response curve
[3] = Conc 20 µM, average response of dose-response curve
[4] = Conc 50 µM, average response of dose-response curve
[5] = Conc 100 µM, average response of dose-response curve
[6] = Conc 200 µM, average response of dose-response curve
[7] = dose-response retest of fragment hits
[8] = dose-response curve of fragment hit
[9] = Conc 10 µM, mean response (inhibition) of dose-response curve
[10] = Conc 15 µM, mean response (inhibition) of dose-response curve
[11] = Conc 20 µM, mean response (inhibition) of dose-response curve
[12] = Conc 50 µM, mean response (inhibition) of dose-response curve
[13] = Conc 100 µM, mean response (inhibition) of dose-response curve
[14] = Conc 200 µM, mean response (inhibition) of dose-response curve

| SMILES | Inhibition at 10 µM | Inhibition at 100 µM | Avg [1] | Avg [2] | Avg [3] | Avg [4] | Avg [5] | Avg [6] | IC50 [7] | LogIC50 (log of IC50 in µM) | IC50 [8] | LogIC50 (log10 of IC50 in µM) | Avg [9] | Avg [10] | Avg [11] | Avg [12] | Avg [13] | Avg [14] |
| --- | --- | --- | --- | --- | --- | --- | --- | --- | --- | --- | --- | --- | --- | --- | --- | --- | --- | --- |
| Cc1cnccc1CCNC(=O)c1cccnc1S [Z1515958452] | 4% | 100% | 4 | -6.1 | 25.7 | 93.3 | 101.4 | 97.8 | 20.6 µM | 1.315 | – | – | – | – | – | – | – | – |
| O=C(CCl)N1CCN(c2ccccc2[N+](=O)[O-])CC1 [Z1562119284] | 20% | 90% | 20 | 20 | 26 | 56.4 | 90 | 97.6 | 44.6 µM | 1.6496 | – | – | – | – | – | – | – | – |
| O=C(CCl)N1CCOC(c2ccc(F)cc2)C1 (centres unmarked) [Z1562122812] | 31% | 100% | 31.1 | 36.9 | 59.9 | 101.2 | 96.2 | 101.8 | 18.4 µM | 1.2639 | – | – | – | – | – | – | – | – |
| N#C/C=C/S(=O)(=O)c1ccc(Cl)cc1 [Z1649581806] | 18% | 95% | 17.8 | 30.7 | 66.2 | 85.5 | 95.1 | 100.5 | 17.8 µM | 1.251 | – | – | – | – | – | – | – | – |
| O=C(CCl)c1ccc2c(c1)CCN(C(=O)C(F)(F)F)C2 [Z1723943157] | 42% | 81% | 42.1 | 47.7 | 60.7 | 76.3 | 81 | 92.3 | 14.4 µM | 1.159 | – | – | – | – | – | – | – | – |
| Nc1cccnc1S [Z1741977862] | 21% | 100% | 21.4 | 52.3 | 66.1 | 102.9 | 106.8 | 99.2 | 15.2 µM | 1.183 | – | – | – | – | – | – | – | – |
| Nc1nccnc1S [Z1868316802] | 21% | 92% | 20.5 | 24.1 | 32.6 | 92.3 | 91.8 | 82.9 | 23.3 µM | 1.368 | – | – | – | – | – | – | – | – |
| OCCc1cnc(S)nc1 [Z2064274637] | 5% | 100% | 5.2 | 28.9 | 36.1 | 91.7 | 103 | 105.7 | 23.4 µM | 1.369 | – | – | – | – | – | – | – | – |
| CC1(C)C(=O)Nc2ccc(C(=O)CCl)cc21 [Z2160878465] | 7% | 97% | 6.9 | 29.9 | 41.3 | 60 | 96.5 | 106.7 | 28.6 µM | 1.456 | – | – | – | – | – | – | – | – |
| O=C(CCl)c1csc(N2CCCCC2)n1 [Z2469673977] | 51% | 100% | 51.4 | 56.3 | 64 | 57.3 | 102 | 104.1 | – | – | – | – | – | – | – | – | – | – |
| CN1C(=O)CCc2cc(C(=O)CCl)ccc21 [Z2491497303] | 6% | 87% | 5.9 | 25.5 | 13.7 | 51.4 | 86.8 | 97.7 | 48.8 µM | 1.688 | – | – | – | – | – | – | – | – |
| CN1Cc2cc(C(=O)CCl)ccc2NC1=O [Z2491497315] | 16% | 95% | 15.7 | 35.9 | 38.8 | 78.6 | 95.1 | 102.1 | 24.2 µM | 1.383 | 24.2 µM | 1.383 | – | – | – | – | – | – |
| O=C(CCl)N1CCN(Cc2ccsc2)CC1 [Z2650385668] | 15% | 86% | – | – | – | – | – | – | – | – | 35.7 µM | 1.553 | 14.7 | 16.7 | 31.9 | 63.6 | 86.4 | 96.9 |
| Cc1ccccc1CN1CCCN(C(=O)CCl)CC1 [Z2651952322] | 18% | 91% | – | – | – | – | – | – | – | – | 33.1 µM | 1.52 | 17.5 | 31.4 | 33.6 | 62.8 | 90.5 | 99.5 |
